From patent US4168206A, “Impregnated disk method for testing antifungal susceptibility” (Philadelphia College of Osteopathic Medicine, priority 1977, dated 1979)

Columns and labels:
Cryptococcus neoformans [1] = experiment: MIC by impregnated disk method, Cryptococcus neoformans; assay type: cell-based
Procedure: (§1) Stock solutions of the antifungal agents to be tested are preferably prepared by diluting the antifungal agents in the proper nutrient medium. It is presently preferred to prepare dilutions in 10 ml of the proper medium to give the following final concentrations when applied to the disks (all quantities in micrograms per milliliter): 0.05, 0.08, 0.09, 0.1; 0.1 increment increases to 0.9, 1.0; 0.5 increment increases to 10.0; and 12.0, 14.0, 20.0, 25.0 and 50.0. Disks have been prepared by placing 0.05 ml of the above dilutions of antifungal agent containing medium on 6.5 mm diameter disks in 0.01 or 0.02 ml increments. The impregnated disks are then allowed to dry at a temperature preferably below about 10° C. […] The disks may also be dried by a lyophilization or freeze drying process.
(§2) To perform the tests in accordance with the present inventions, disks impregnated with various concentrations of antifungal agent and nutrient medium and a control disk impregnated only with the corresponding nutrient medium are placed on the fungus to be tested which has been applied to the non-nutrient medium. The disks are the inoculated non-nutrient medium are then incubated at a suitable temperature for a sufficient time to promote growth of the fungus. Any temperature is suitable if it will promote growth of the fungus without adversely affecting the fungus or the activity of the antifungal agent or agents tested. The time of incubation can be determined by observing the extent of growth around the control disk. […] The zones of growth or inhibition around the disks were read at 6, 12, 24, 36 and 48 hours after the disks were placed on the tested fungus.
(§3) The minimum inhibitory concentration is defined as the lowest concentration of antifungal agent which inhibits visible growth. The disks containing concentrations of antifungal agents below the minimum inhibitory concentration show circumscribed growth of the fungus around the disk. Disks containing concentrations of antifungal agent at or above the minimum inhibitory concentration show no circumscribed growth.
(§4) Clinical isolates of various fungi listed in Table 1 were obtained from different patients diagnosed as having fungal infections. The fungal inocula were prepared by using a 24-48 hour cultures grown in yeast nitrogen base containing 1% glucose and 0.15% asparagine. After centrifuging, the supernatant was removed, the sedimented cells were washed twice with sterile distilled water and a cell suspension was adjusted to 80% transmission at 520 nm using a Beckman DB-GT grating spectrophotometer.
(§5) Sterile liquified 2% purified agar was placed in petri dishes and allowed to harden. The surface of the agar was inoculated with a sterile cotton swab saturated with a suspension of an organism. The uniformly swabbed plates were then allowed to dry.
(§6) Disks were prepared using the dilutions described above for amphotericin B, nystatin and 5-fluorocytosine. 0.05 ml of the dilutions of each antifungal agent diluted with the appropriate nutrient medium were pipetted on 6.5 mm diameter disks. The disks were dried at 4° C. after each application. Control disks were also prepared.
(§7) Several test disks and a control disk were placed in each petri dish containing the inoculated agar. The disks and petri dishes were then incubated at 29° C. and the minimum inhibitory concentration of the various concentrations of the antifungal agents were read at 6, 12, 24, 36 and 48 hours.
(§8) In 10 duplicate runs with each strain tested, the variation in minimum inhibitory concentration averaged ±0.05 μg/ml.

Cryptococcus neoformans [2] = experiment: MIC by broth dilution method, Cryptococcus neoformans; assay type: cell-based
Source text: (§9) The preparation of the nutrient media, the antifungal agents and the fungi to be tested in the present invention are similar to those reported in S. Shadomy and A. Espinel-Ingroff, "Susceptibility Testing Of Antifungal Agents", Ch. 63, pp. 569-574 in E. H. Lennett, E. H. Spaulding, and J. P. Truant, Eds., Manual Of Clinical Microbiology, 2nd Ed., American Society for Microbiology, Washington, D.C. (1974). This publication describes the susceptibility testing of antifungal agents, namely, amphotericin B, nystatin and 5-fluoro-cytosine (5-FC), by the "broth dilution method" and the "semisolid agar dilution method". At pages 570-571, it is stated:
as §8
(§10) *Broth dilution method conducted in accordance with S. Shadomy and E.
(§11) Espinel-Ingroff, "Susceptibility Testing of Antifungal Agents", Ch. 63,
(§12) pp. 569-574 in E. H. Spaulding and J. P. Truant, Eds., Manual Of Clinical
(§13) Microbiology, 2nd Ed., American Society for Microbiology, Washington, […]

C. parapsilosis [3] = experiment: MIC by broth dilution method, Candida parapsilosis; assay type: cell-based
Source text: as §9, §8, §10, §11, §12, §13

C. parapsilosis [4] = experiment: MIC by impregnated disk method, Candida parapsilosis; assay type: cell-based
Procedure: as §1, §2, §3, §4, §5, §6, §7, §8

Saccharomyces cerevisiae [5] = experiment: MIC by broth dilution method, Saccharomyces cerevisiae; assay type: cell-based
Source text: as §9, §8, §10, §11, §12, §13

C. tropicalis [6] = experiment: MIC by impregnated disk method, Candida tropicalis; assay type: cell-based; conditions: C. tropicalis; disk method
Procedure: as §1, §2
(§14) The minimum inhibitory concentration is defined as the lowest concentration of antifungal agent which inhibits visible growth. […]
(§15) Several test disks and a control disk were placed in each petri dish containing the inoculated agar. The disks and petri dishes were then incubated at 29° C. and the minimum inhibitory concentration of the various concentrations of the antifungal agents were read at 6, 12, 24, 36 and 48 hours. […]

Candida albicans [7] = experiment: MIC by impregnated disk method, Candida albicans; assay type: cell-based
Procedure: as §1, §2, §3, §4, §5, §6, §7, §8

Trichosporon sp. [8] = experiment: MIC by broth dilution method, Trichosporon sp.; assay type: cell-based; conditions: Trichosporon sp.; broth dilution method
Source text: as §9, §8, §10, §11, §12, §13

Torulopsis glabrata [9] = experiment: MIC by impregnated disk method, Torulopsis glabrata; assay type: cell-based; conditions: Torulopsis glabrata; disk method
Procedure: as §1, §2, §14, §15

Geotrichum candidum [10] = experiment: MIC by broth dilution method, Geotrichum candidum; assay type: cell-based; conditions: broth dilution method
Source text: as §9, §8, §10, §11, §12, §13

[11] = cited from earlier work
Saccharomyces cerevisiae [12] = experiment: MIC by impregnated disk method, Saccharomyces cerevisiae; assay type: cell-based
Procedure: as §1, §2, §3, §4, §5, §6, §7, §8

Trichosporon sp. [13] = experiment: MIC by impregnated disk method, Trichosporon sp.; assay type: cell-based; conditions: Trichosporon sp.; disk method
Procedure: as §1, §2, §14, §15

C. tropicalis [14] = experiment: MIC by broth dilution method, Candida tropicalis; assay type: cell-based; conditions: C. tropicalis; broth dilution method
Source text: as §9, §8, §10, §11, §12, §13

Geotrichum candidum [15] = experiment: MIC by impregnated disk method, Geotrichum candidum; assay type: cell-based; conditions: disk method
Procedure: as §1, §2, §14, §15

Candida albicans [16] = experiment: MIC by broth dilution method, Candida albicans; assay type: cell-based
Source text: as §9, §8, §10, §11, §12, §13

Torulopsis glabrata [17] = experiment: MIC by broth dilution method, Torulopsis glabrata; assay type: cell-based; conditions: Torulopsis glabrata; broth dilution method
Source text: as §9, §8, §10, §11, §12, §13

Candida tropicalis = experiment: Susceptibility to combination of antifungal agents on disks (Example 3); assay type: cell-based; conditions: in combination with amphotericin B 0.05 μg/ml
Source text: (§16) The method of the present invention also may be used to test combinations of antifungal agents. In this method, more than one antifungal agent of known concentration is impregnated in each test disk.
(§17) Each disk is impregnated with a particular known concentration of at least one particular antifungal agent, except for the control disks. When the susceptibility of a fungus to combinations of antifungal agents is being tested, more than one antifungal agent is impregnated in each test disk.
(§18) The susceptibility of two other isolates to combinations of antifungal agents were tested by combining more than one antifungal agent on each test disk. A series of test disks were prepared containing various combinations of antifungal agents in various concentrations and were used in the method of the present invention. The results of this procedure are summarized in the following specific, non-limiting examples:
An isolate of Candida tropicalis was initially tested for amphotericin B susceptibility of 0.5 μg/ml. When a combination of amphotericin B and tetracycline were combined on the disks used in the testing procedure according to the present invention, effective inhibition of the isolate occurred using 0.05 μg/ml of amphotericin B and 0.2 μg/ml of tetracycline.

Candida albicans [18] = experiment: Susceptibility to combination of antifungal agents on disks (Example 2); assay type: cell-based; conditions: Candida albicans isolate; in combination with amphotericin B
Source text: as §16, §17, §18
This is a significant reduction in amphotericin B.

[19] = Cryptococcus neoformans isolate 1
[20] = Saccharomyces cerevisiae isolate 1

In the case of `C[C@@H]1[C@H](O)[C@@H](C)/C=C/C=C/CC/C=C/C=C/C=C/C=C/C(O[C@H]2O[C@H](C)[C@@H](O)[C@H](N)[C@@H]2O)CC2O[C@](O)(CC(O)C(O)CCC(O)CC(O)CC(O)CC(=O)O[C@H]1C)CC(O)C2C(=O)O` (stereo partly drawn) [Nystatin, nystatin], the “Minimum Inhibitory Concentration, Disk” value (Cryptococcus neoformans [1]; C. neoformans isolate 2) is reported as 3.00 µg/mL, the “Minimum Inhibitory Concentration, Disk” value (Cryptococcus neoformans [1]; [19]) is reported as 2.00 µg/mL and the “Minimum Inhibitory Concentration, Broth” value (Cryptococcus neoformans [2]; C. neoformans isolate 2) is reported as 3.00 µg/mL. The “Minimum Inhibitory Concentration, Broth” value (Cryptococcus neoformans [2]; [19]) was 2.50 µg/mL, the “Minimum Inhibitory Concentration, Broth” value (C. parapsilosis [3]; C. parapsilosis isolate 1) was 4.50 µg/mL and the “Minimum Inhibitory Concentration, Broth” value (C. parapsilosis [3]; C. parapsilosis isolate 2) was 5.00 µg/mL. For the same compound, the “Minimum Inhibitory Concentration, Disk” value (C. parapsilosis [4]; C. parapsilosis isolate 1) was 3.50 µg/mL, the “Minimum Inhibitory Concentration, Disk” value (C. parapsilosis [4]; C. parapsilosis isolate 2) was 4.50 µg/mL and the “Minimum Inhibitory Concentration, Broth” value (Saccharomyces cerevisiae [5]; S. cerevisiae isolate 2) was 2.00 µg/mL. For the same compound, the “Minimum Inhibitory Concentration, Broth” value (Saccharomyces cerevisiae [5]; [20]) was 2.50 µg/mL, the “Minimum Inhibitory Concentration, Disk” value (C. tropicalis [6]) was 5.50 µg/mL and the “Minimum Inhibitory Concentration, Disk” value (Candida albicans [7]; isolate 1) was 1.50 µg/mL. For the same compound, the “Minimum Inhibitory Concentration, Disk” value (Candida albicans [7]; isolate 2) was 4.50 µg/mL, the “Minimum Inhibitory Concentration, Disk” value (Candida albicans [7]; isolate 3) was 1.50 µg/mL and the “Minimum Inhibitory Concentration, Disk” value (Candida albicans [7]; isolate 4) was 3.50 µg/mL. The “Minimum Inhibitory Concentration, Disk” value (Candida albicans [7]; isolate 5) was 4.00 µg/mL, the “Minimum Inhibitory Concentration, Disk” value (Candida albicans [7]; isolate 6) was 6.50 µg/mL and the “Minimum Inhibitory Concentration, Disk” value (Candida albicans [7]; isolate 7) was 0.30 µg/mL. For the same compound, the “Minimum Inhibitory Concentration, Broth” value (Trichosporon sp. [8]) was 3.00 µg/mL, the “Minimum Inhibitory Concentration, Disk” value (Torulopsis glabrata [9]) was 3.00 µg/mL and the “Minimum Inhibitory Concentration, Broth” value (Geotrichum candidum [10]) was 4.50 µg/mL. For the same compound, the stability in acid ([11]; in the presence of acid) was “unstable in the presence of acid”, the thermal stability ([11]; upon incubation) was “subject to thermal destruction upon incubation” and the solubility in water ([11]; water) was “insoluble in water”. For the same compound, the “Minimum Inhibitory Concentration, Disk” value (Saccharomyces cerevisiae [12]; S. cerevisiae isolate 2) was 1.00 µg/mL, the “Minimum Inhibitory Concentration, Disk” value (Saccharomyces cerevisiae [12]; [20]) was 2.00 µg/mL and the “Minimum Inhibitory Concentration, Disk” value (Trichosporon sp. [13]) was 3.50 µg/mL. For the same compound, the “Minimum Inhibitory Concentration, Broth” value (C. tropicalis [14]) was 6.00 µg/mL, the “Minimum Inhibitory Concentration, Disk” value (Geotrichum candidum [15]) was 5.00 µg/mL and the “Minimum Inhibitory Concentration, Broth” value (Candida albicans [16]; isolate 1) was 1.50 µg/mL. The “Minimum Inhibitory Concentration, Broth” value (Candida albicans [16]; isolate 2) was 5.00 µg/mL, the “Minimum Inhibitory Concentration, Broth” value (Candida albicans [16]; isolate 3) was 1.50 µg/mL and the “Minimum Inhibitory Concentration, Broth” value (Candida albicans [16]; isolate 4) was 3.50 µg/mL. For the same compound, the “Minimum Inhibitory Concentration, Broth” value (Candida albicans [16]; isolate 5) was 4.00 µg/mL, the “Minimum Inhibitory Concentration, Broth” value (Candida albicans [16]; isolate 6) was 6.00 µg/mL and the “Minimum Inhibitory Concentration, Broth” value (Candida albicans [16]; isolate 7) was 0.20 µg/mL. The “Minimum Inhibitory Concentration, Broth” value (Torulopsis glabrata [17]) was 4.50 µg/mL.

In the case of `CN(C)C1C(=O)C(C(N)=O)=C(O)C2(O)C(=O)C3=C(O)c4c(O)cccc4C(C)(O)C3CC12` (stereo not drawn) [tetracycline], the “effective inhibition of the isolate, concentration of tetracycline” value (Candida tropicalis) is reported as 0.2 µg/mL and the tetracycline susceptibility (Candida albicans [18]) is reported as 0.1 µg/mL.
